Assay results taken from patent US5164185A, “Pharmaceutical and cosmetic depigmentation compositions with a caffeic acid base” (priority 1989, dated 1992).

Experiments:
[1] = system: fungus-derived tyrosinase; test: in vitro tyrosinase inhibition, dopachrome formation by visible spectrophotometry (475 nm); assay type: biochemical; details: in words
Description: The efficacy of the various combination according to the invention have been studied in vitro by measuring out, using visible spectrophotometry (475 nm), the quantity of dopachrome formed during the chain of tyrosine-oxidation reactions. These oxidation reactions are catalyzed in vitro using fungus-derived tyrosinase in the presence of a co-substrate (for example, a small quantity of L-dopa) in order to trigger the hydroxylation reaction of L-tyrosine into L-dopa, this latter being then oxidized by catalysis into dopaquinone, then into dopachrome, an intermediate product formed before the non-enzymatic oxidation reactions leading to melanin formation.
Accordingly, the concentration of dopachrome formed over time is monitored in the presence of various inhibitors of tyrosinasic activity.
The concentrations of inhibitors are expressed as molar percents in relation to the concentration of tyrosine present in the reactive medium.
The inhibitory effect may be expressed, in relation to the control curve (absence of inhibitor) by lowering of the quantity of dopachrome formed and/or by a slowing of dopachrome-formation kinetics. […]

[2] = system: melanin biosynthesis; test: depigmenting action (studies on substances used singly or in combination); details: in words
Description: In these latter, at least one of the active ingredients may be liposomes.

[3] = system: melanocytes; details: in words, prior art; cited from earlier work

O=C(O)/C=C/c1ccc(O)c(O)c1 [caffeic acid]
inhibition of tyrosinasic activity leading to limited formation of dopachrome [1]: inhibition of tyrosinasic activity
depigmenting action [2]: especially interesting depigmenting action

Oc1ccc(O)cc1 [hydroquinone]
irritation and cytotoxicity for melanocytes [3]: especially irritating and cytotoxic for melanocytes
